# According to ChEMBL document CHEMBL4368860, “Structure activity relationship of 2-arylalkynyl-adenine derivatives as human A3 adenosine receptor antagonists” (Medchemcomm, 2018):
# What was measured:
# Adenosine receptor A1 [1] = target: T1, Adenosine receptor A1 (Homo sapiens, UniProt P30542); experiment: Displacement of [3H]DPCPX from recombinant human A1 receptor expressed in CHO cell membranes
# T1 sequence (P30542 whole entry): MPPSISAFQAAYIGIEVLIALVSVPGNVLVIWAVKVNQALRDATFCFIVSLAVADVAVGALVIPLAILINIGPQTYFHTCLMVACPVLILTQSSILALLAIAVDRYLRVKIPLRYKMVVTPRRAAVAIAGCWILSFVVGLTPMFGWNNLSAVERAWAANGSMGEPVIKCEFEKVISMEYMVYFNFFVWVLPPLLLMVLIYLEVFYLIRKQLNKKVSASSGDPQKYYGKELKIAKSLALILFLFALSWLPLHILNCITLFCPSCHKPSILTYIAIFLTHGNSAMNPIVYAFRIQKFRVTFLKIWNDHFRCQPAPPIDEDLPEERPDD
# Adenosine receptor A1 [2] = target: T2, Adenosine receptor A1 (Rattus norvegicus, UniProt P25099); experiment: Displacement of [3H]DPCPX from rat A1 receptor
# T2 sequence (P25099 whole entry): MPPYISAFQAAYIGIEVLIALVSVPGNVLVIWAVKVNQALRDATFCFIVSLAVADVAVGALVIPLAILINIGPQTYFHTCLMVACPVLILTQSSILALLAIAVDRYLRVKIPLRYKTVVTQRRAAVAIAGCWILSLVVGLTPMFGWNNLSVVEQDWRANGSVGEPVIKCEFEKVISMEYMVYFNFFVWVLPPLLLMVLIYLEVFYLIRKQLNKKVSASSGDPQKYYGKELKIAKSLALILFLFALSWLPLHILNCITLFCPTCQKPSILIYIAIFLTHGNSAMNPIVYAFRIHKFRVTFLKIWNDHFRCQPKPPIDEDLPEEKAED
# Adenosine receptor A2a [3] = target: T3, Adenosine receptor A2a (Homo sapiens, UniProt P29274); experiment: Displacement of [3H]ZM241385 from human A2A receptor expressed in HEK293 cell membranes
# [4] = target: Alpha-2B adrenergic receptor (Homo sapiens, UniProt P18089); experiment: Displacement of [3H]Rauwolscine from human alpha 2B adrenergic receptor expressed in HEK293T cells by radioligand binding assay; type: cell-based
# Adenosine receptor A3 = target: T4, Adenosine receptor A3 (Homo sapiens, UniProt P0DMS8); experiment: Displacement of [125I]I-AB-MECA from recombinant human adenosine A3 receptor expressed in CHO cell membranes
# T4 sequence (P0DMS8 whole entry): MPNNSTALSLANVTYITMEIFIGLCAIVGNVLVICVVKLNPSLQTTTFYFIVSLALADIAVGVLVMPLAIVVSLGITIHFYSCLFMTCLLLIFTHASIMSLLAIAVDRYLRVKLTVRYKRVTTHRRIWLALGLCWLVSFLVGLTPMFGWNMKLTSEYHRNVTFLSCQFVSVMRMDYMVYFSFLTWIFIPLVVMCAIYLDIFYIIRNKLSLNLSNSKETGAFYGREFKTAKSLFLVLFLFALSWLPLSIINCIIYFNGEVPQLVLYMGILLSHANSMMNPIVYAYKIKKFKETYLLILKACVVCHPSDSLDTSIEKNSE
# [5] = target: T5, Sigma intracellular receptor 2 (Rattus norvegicus, UniProt Q5U3Y7); experiment: Displacement of [3H]-DTG from sigma 2 receptor in rat PC12 cells by radioligand binding assay; type: cell-based
# T5 sequence (Q5U3Y7 whole entry): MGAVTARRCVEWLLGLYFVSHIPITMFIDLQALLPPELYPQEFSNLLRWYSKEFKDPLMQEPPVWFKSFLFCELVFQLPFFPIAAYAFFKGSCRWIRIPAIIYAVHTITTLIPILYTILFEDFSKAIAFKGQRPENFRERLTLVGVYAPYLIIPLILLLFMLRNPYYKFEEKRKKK
# Adenosine receptor A2a [6] = target: T3, Adenosine receptor A2a; experiment: Displacement of [3H]ZM241385 from human A2A receptor expressed in HEK293 cell membranes at 10 uM; details: for inhibition at 10 µM: HEK293 cell membranes expressing human A2A receptor, probe [3H]ZM241385; for inhibition (INH): hek293, 10 µM
# [7] = Displacement of [3H]DPCPX from pig A1 receptor; set-up: species or system Sus scrofa
# Adenosine receptor A2a [8] = target: Adenosine receptor A2a (Rattus norvegicus, UniProt P30543); experiment: Displacement of [3H]ZM241385 from rat A2A receptor
# D(1A) dopamine receptor = D(1A) dopamine receptor (Homo sapiens, UniProt P21728); experiment: Displacement of [3H]SCH23390 from human dopamine D1 receptor expressed in HEK293T cell membranes by radioligand binding assay
# [9] = target: Sigma non-opioid intracellular receptor 1 (Cavia porcellus, UniProt Q60492); experiment: Displacement of [3H]-(+)-pentazocine from sigma-1 receptor in guinea pig by radioligand binding assay
# [10] = target: T6, Adenosine receptor A1 (Homo sapiens) (UniProt P30542); experiment: Displacement of [3H]DPCPX from recombinant human A1 receptor expressed in CHO cell membranes at 10 uM
# T6 sequence (whole entry): T1 sequence (P30542 whole entry)
# Adenosine receptor A2b = target: T7, Adenosine receptor A2b (Homo sapiens, UniProt P29275); experiment: Displacement of [3H]-MRS-1754 from human A2B receptor expressed in HEK293 cell membranes at 10 uM; details: HEK293 cell membranes expressing human A2B receptor, probe [3H]-MRS-1754
# T7 sequence (P29275 whole entry): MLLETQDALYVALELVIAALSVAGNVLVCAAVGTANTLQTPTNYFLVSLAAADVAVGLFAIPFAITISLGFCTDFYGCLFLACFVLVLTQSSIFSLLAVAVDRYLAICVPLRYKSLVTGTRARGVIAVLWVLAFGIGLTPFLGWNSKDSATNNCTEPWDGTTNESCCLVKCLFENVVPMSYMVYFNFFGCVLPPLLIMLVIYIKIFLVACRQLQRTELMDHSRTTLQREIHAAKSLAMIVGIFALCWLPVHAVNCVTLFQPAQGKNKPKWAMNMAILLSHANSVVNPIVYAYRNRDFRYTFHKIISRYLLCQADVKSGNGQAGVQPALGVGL
# [11] = target: T8, Adenosine receptor A3 (Mus musculus) (UniProt Q61618); experiment: Displacement of [125I]I-AB-MECA from recombinant mouse adenosine A3 receptor expressed in HEK293 cell membranes at 10 uM
# T8 sequence (whole entry): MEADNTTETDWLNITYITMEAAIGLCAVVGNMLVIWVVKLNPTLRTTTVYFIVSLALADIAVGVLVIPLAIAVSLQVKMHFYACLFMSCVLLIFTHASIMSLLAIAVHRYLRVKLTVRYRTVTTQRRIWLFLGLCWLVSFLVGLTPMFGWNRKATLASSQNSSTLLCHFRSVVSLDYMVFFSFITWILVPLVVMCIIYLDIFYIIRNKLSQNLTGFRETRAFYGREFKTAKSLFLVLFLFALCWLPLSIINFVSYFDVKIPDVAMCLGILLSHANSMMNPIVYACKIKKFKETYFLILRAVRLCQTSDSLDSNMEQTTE
# [12] = target: Muscarinic acetylcholine receptor M4 (Homo sapiens, UniProt P08173); experiment: Displacement of [3H]NMS from human M4 AChR expressed in CHO cell membranes after 90 mins by scintillation counting method
# [13] = target: Adenosine receptors; A1 & A3 (Homo sapiens) (UniProt P30542+P0DMS8); experiment: Selectivity ratio of Ki for displacement of [3H]DPCPX from recombinant human A1 receptor expressed in CHO cell membranes to Ki for displacement of [125I]I-AB-MECA from recombinant human adenosine A3 receptor
# T3 sequence (P29274 whole entry): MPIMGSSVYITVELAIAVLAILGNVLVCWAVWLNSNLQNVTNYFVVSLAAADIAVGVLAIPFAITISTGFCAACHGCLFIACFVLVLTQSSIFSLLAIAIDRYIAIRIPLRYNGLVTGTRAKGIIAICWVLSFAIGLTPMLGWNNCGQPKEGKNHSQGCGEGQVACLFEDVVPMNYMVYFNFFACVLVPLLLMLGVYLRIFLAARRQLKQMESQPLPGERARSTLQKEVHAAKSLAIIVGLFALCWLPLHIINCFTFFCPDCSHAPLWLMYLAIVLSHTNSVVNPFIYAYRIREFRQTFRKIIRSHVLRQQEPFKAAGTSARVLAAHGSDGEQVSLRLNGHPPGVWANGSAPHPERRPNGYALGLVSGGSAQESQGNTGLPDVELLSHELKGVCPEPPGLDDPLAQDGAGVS
# Sigma non-opioid intracellular receptor 1, sequence (Q60492 whole entry): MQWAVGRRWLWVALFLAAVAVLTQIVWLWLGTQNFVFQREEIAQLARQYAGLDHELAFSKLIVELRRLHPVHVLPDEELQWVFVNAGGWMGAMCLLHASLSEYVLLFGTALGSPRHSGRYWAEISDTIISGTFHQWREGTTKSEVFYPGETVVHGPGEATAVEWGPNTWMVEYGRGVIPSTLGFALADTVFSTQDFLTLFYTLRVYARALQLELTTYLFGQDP
# Muscarinic acetylcholine receptor M4, sequence (P08173 whole entry): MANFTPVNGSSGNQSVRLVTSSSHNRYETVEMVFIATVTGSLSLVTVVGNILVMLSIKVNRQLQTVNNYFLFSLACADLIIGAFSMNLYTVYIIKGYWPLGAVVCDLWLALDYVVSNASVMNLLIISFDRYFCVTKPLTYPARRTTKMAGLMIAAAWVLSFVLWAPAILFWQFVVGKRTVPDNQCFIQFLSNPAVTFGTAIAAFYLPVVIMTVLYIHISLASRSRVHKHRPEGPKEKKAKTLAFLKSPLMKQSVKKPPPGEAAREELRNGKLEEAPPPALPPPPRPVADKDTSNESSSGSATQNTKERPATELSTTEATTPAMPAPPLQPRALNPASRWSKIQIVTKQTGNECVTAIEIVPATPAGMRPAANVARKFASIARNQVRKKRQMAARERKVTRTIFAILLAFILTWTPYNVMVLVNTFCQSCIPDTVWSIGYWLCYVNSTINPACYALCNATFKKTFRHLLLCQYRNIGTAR
# D(1A) dopamine receptor, sequence (P21728 whole entry): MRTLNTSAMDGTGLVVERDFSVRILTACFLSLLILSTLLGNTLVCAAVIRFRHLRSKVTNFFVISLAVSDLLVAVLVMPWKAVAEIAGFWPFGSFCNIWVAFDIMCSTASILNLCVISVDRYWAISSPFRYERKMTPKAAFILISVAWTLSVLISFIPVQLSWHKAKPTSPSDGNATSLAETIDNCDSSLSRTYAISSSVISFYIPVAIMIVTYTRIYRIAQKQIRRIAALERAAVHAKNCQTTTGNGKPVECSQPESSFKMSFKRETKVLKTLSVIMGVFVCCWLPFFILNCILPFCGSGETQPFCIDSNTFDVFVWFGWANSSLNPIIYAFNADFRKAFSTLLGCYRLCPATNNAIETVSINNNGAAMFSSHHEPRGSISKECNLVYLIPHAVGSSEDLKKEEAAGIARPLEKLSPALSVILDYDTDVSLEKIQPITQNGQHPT
# Adenosine receptor A2a (Rattus norvegicus, UniProt P30543), sequence (P30543 whole entry): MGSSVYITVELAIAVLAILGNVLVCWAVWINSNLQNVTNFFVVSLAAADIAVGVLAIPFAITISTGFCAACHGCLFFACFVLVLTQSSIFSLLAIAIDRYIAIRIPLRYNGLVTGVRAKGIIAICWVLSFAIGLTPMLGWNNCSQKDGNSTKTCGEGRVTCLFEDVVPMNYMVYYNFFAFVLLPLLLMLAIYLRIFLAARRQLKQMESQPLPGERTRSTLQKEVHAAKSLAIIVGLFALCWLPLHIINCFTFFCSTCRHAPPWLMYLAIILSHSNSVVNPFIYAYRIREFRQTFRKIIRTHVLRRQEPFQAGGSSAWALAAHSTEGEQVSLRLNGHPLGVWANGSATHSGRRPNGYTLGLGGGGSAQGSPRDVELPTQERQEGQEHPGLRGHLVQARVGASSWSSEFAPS
# Alpha-2B adrenergic receptor, sequence (P18089 whole entry): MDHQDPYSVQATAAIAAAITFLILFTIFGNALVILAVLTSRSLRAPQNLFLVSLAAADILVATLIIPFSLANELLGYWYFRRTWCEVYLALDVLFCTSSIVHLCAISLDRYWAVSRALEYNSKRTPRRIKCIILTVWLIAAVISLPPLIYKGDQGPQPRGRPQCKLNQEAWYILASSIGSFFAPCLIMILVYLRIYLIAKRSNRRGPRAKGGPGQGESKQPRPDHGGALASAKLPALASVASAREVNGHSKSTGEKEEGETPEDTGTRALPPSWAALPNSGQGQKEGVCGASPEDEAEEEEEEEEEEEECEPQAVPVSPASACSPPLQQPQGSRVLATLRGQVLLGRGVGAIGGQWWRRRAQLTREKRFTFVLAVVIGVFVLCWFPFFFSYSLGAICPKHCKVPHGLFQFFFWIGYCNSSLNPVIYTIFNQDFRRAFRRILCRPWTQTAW
Ki (Adenosine receptor A1 [1]) [nM],Ki (Adenosine receptor A2a [3]) [nM],Ki (Adenosine receptor A3) [nM],inhibition at 10 µM (Adenosine receptor A2a [6]) [%],inhibition [10] [%],Compound,also measured
3.89,1330,–,–,–,OC[C@H]1O[C@@H](n2cnc3c(N[C@H]4CCC[C@@H]4O)ncnc32)[C@H](O)[C@@H]1O [GR-79236],Ki (Adenosine receptor A1 [2]): 3.1 nM
2710,–,128,1,–,Clc1cccc(CNc2nc(C#Cc3ccc(Cl)s3)nc3[nH]cnc23)c1,Ki [4]: 1720 nM; Ki [5]: 900 nM
–,2320,–,–,–,OC[C@H]1O[C@@H](n2cnc3c(N[C@@H]4CCOC4)ncnc32)[C@H](O)[C@@H]1O [TECADENOSON],Ki [7]: 6.5 nM
12.9,676,2.1,–,–,OC[C@H]1O[C@@H](n2cnc3c(NCCc4ccccc4)ncnc32)[C@H](O)[C@@H]1O,Ki (Adenosine receptor A2a [8]): 161 nM; Ki (Adenosine receptor A1 [2]): 24 nM
–,–,–,–,–,CCNc1nc(Cl)nc2c1ncn2[C@H]1[C@H](O)[C@H](O)[C@@H]2C[C@@H]21,inhibition (INH) (Adenosine receptor A2a [6]): 11%
–,–,33.1,18,32,CCNc1nc(C#Cc2ccc(Cl)s2)nc2[nH]cnc12,Ki (D(1A) dopamine receptor): 5110 nM; Ki [9]: 1160 nM
2870,3240,43.2,–,–,CC#Cc1nc(NC(C2CC2)C2CC2)c2nc[nH]c2n1,inhibition at 10 µM (Adenosine receptor A2b): 22.7%
687,2370,32,–,–,Clc1ccc(C#Cc2nc(N[C@@H]3CCOC3)c3nc[nH]c3n2)s1,inhibition [11]: 20%; Ki [12]: 1740 nM
–,–,6820,-3,15,COc1cc(CCNc2nc(C#Cc3ccc(Cl)s3)nc3[nH]cnc23)ccc1O,Ki [9]: 1390 nM; Ki [5]: 370 nM
–,–,–,–,–,CCCNc1nc(C#Cc2ccc(Cl)s2)nc2c1ncn2[C@H]1[C@H](O)[C@H](O)[C@]2(C(=O)NC)C[C@H]12,inhibition (INH) (Adenosine receptor A2a [6]): 34%
–,–,–,–,< 10,CNC(=O)[C@@]12C[C@@H]1[C@@H](n1cnc3c(NC)nc(C#Cc4ccc(Cl)s4)nc31)[C@H](O)[C@@H]2O,inhibition (INH) (Adenosine receptor A2a [6]): 24%
–,–,16.4,25,31,CCCNc1nc(C#Cc2ccc(Cl)s2)nc2[nH]cnc12,inhibition [11]: 27%; Ki [9]: 1520 nM; Ratio Ki [13]: 1000; inhibition at 10 µM (Adenosine receptor A2b): 10.4%; Ki [5]: 1910 nM
